For one data set, the target named is T1, human CXCR2 (Homo sapiens, UniProt P25025).
T1 construct: expressed in transfected cells
T1 sequence (P25025 1-360): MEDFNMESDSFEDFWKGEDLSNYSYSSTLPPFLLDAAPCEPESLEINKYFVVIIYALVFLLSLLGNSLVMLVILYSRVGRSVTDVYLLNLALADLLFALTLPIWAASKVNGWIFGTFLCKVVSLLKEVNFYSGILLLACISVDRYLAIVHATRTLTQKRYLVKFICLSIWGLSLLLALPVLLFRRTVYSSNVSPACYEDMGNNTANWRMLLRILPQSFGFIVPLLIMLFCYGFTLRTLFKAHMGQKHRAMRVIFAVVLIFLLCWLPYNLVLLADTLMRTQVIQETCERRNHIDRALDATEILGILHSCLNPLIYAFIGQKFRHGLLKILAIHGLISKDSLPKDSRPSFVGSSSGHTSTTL
Kind of data set: Potency (pIC50) - ligand binding assay, Alexa647 IL-8 displacement from CXCR2 membranes. Particulars: 50% reduction in specific Alexa647 IL-8 (1 nM) binding to HEK293 human CXCR2 membranes. From the text:
Potency (pIC50)—Ligand Binding Assay
Human Embryonic Kidney 293 cells (HEK293 cells) from the American Type Culture Collection were transfected with human CXCR2 cDNA (RefSeqNM_001557), previously cloned into the eukaryotic expression vector pIRES-Neo2, (Clontech). Populations of Geneticin (Invitrogen)-resistant cells were selected for stable expression of CXCR2 and clones were generated by dilution cloning (0.3 cells/well) in 96-well tissue culture plates.
Cells of the highest expressing clone (Clone 6, identified by FACS analysis) were harvested, following 24 hour pre-treatment with 5 mM sodium butyrate, in 10 ml of ice-cold hypotonic buffer (20 mM HEPES, 1 mM EDTA, 0.1 mM DTT, 0.1 mM Phenyl Methyl Sulphonyl Fluoride and 0.1 mg/L Bacitracin, pH7.4) and left to swell for 10 min. Following centrifugation (200 g, 5 min, 4° C.), cells were resuspended in hypotonic buffer and membranes were prepared using a polytron tissue homogenizer (3×10 second treatments). […]
All assays were performed in black, 384-well plates (Greiner). […] Total binding of Alexa^647 IL-8 was determined in the absence of competing compound and non-specific binding of Alexa^647 IL-8 was determined in the presence of 0.3 μM 1-(4-chloro-2-hydroxy-3-sulfamoyl-phenyl)-3-(2,3-dichlorophenyl)urea. […]

A further data set deals with plasma proteins. Kind of data set: Human plasma protein binding (hPPB), equilibrium dialysis. Particulars: human plasma pH 7.4, 37° C., 18 hours, 10 μM. The class given is in vitro ADME. As for the experimental part:
Measurement of Human Plasma Protein Binding (hPPB)
The extent of binding of a drug to plasma proteins is a crucial factor in determining in vivo potency and pharmacokinetics. The method used for determining the extent of plasma protein binding involves equilibrium dialysis of the compound between plasma and buffer at 37° C. The concentrations of compound in the plasma and buffer are then determined using high pressure liquid chromatography (HPLC) with mass spectroscopy (MS) detection. The dialysis method involves the use of mixtures of up to 10 compounds simultaneously. At the concentrations used in the assay, there is no significant difference in the results when compounds are run singly or in mixtures.
Membranes (molecular weight cut-off 5000) were first prepared by soaking in the dialysis buffer for a minimum of 1 hour. […]
The samples and standards were then analysed using HPLC with MS detection, which allows deconvolution of the mixtures of compounds. […]
The chromatograms were processed using MassLynx software that automatically calculates a calibration curve for each compound in a mixture and then interpolates the concentrations of buffer and plasma samples. […] The percentage bound was calculated from the MassLynx data using the following equation: […]
The % free (100-% bound) for each compound was calculated from the concentration data, and then recorded.

A word on the IC50: it is the point on the concentration scale where inhibition reaches its midpoint.

`CC1CN(S(=O)(=O)Nc2cc(O[C@H](C)[C@@H](O)CO)nc(SCc3ccc(F)cc3)n2)C1` [Example 1, N-(6-((2R,3S)-3,4-Dihydroxybutan-2-yloxy)-2-(4-fluorobenzylthio)pyrimidin-4-yl)-3-methylazetidine-1-sulfonamide] gave an IC50 at human CXCR2 of 3.98 nM. In the data set with plasma proteins, the “human plasma protein binding (% free)” value is 0.11 (±0.05) % free.

The record behind these values is US9975881B2, “Compound” (ASTRAZENECA AB, priority 2011, dated 2018).
